Measurements published in patent publication US4189499A, “Lysine 4-allyloxy-3-chlorophenylacetate and method of its preparation” (priority 1979, dated 1980).
Several values for one entry are separate records, joined by “and”; a condition that tells them apart may be missing. Identical values can stand only once. Entries after “also recorded” stand apart in the source; their conditions may differ. Counter-ions that a name gives are not always drawn. Like-named read-outs stand apart in the source and are kept apart here.

Tests used:
[1] = Stability and hygroscopicity; type: physicochemical; details: for Stability of the solution: in words; for Hygroscopicity: isolated solid
[2] = system: rabbit dorsal long muscle; assay: Local tolerability after intramuscular injection, muscle removed at 24 hours, irritation by arbitrary scores; type: in vivo; parameters: scale not given here
Procedure: Such a tolerability was estimated after injection of equivalent solutions of the various preparations, effected in the rabbit dorsal long muscle, removing muscle 24 hours after injection and estimating the degree of induced irritation through arbitrary scores.

[3] = Solubility; type: physicochemical; details: in words, solvent as stated
[4] = cited from earlier work
[5] = Pharmacokinetics from plasma levels after oral, rectal and intramuscular administration in rabbits; type: in vivo, rabbit; details: for Ka / t1/2α / CL/F / k el / Cmax / Vd/F / half-life / Tmax: ± E.S.M.; for CL/F / k el / Cmax / Vd/F / half-life / Tmax: rabbit, plasma; for Cmax: read-out: Cmax; for Vd/F: read-out: Vdβ; for half-life: read-out: t1/2β; for Tmax: read-out: tmax (converted)
Procedure: (§1) The following pharmacological experimentation was carried out in order to estimate the comparative absorption and bioavailability through various administration routes in rabbits of Alclofenac acid and its lysine salt.

[6] = Extent of availability after different routes, intravenous administration as reference; type: in vivo, rabbit; details: i.v. as reference
Procedure: as §1

[7] = pH of aqueous solution; type: physicochemical; details: aqueous solution as prepared
[8] = intravenous route, prior knowledge; cited from earlier work
[9] = General tolerability by route of administration; type: in vivo; details: intravenous or intramuscular; listed as Mono-ethanolamine solution
[10] = 100 mg/ml (as acid), 0.25 ml injected
[11] = 100 mg/ml (as acid), 0.5 ml injected
[12] = 131 mg/ml (as acid), 0.25 ml injected
[13] = listed as Mono-ethanolamine solution

Which results are given for `C=CCOc1ccc(CC(=O)O)cc1Cl` [Alclofenac-Methylglucose]?
Stability of the solution ([1]; listed as Methylglucamine salt): not very stable; Hygroscopicity ([1]; listed as Methylglucamine salt): very hygroscopic; SCORES at 24 hours, Average [2, 10]: 2; SCORES at 24 hours, Average [2, 11]: 5.4; SCORES at 24 hours, individual [2, 10]: 0 and 3 (2×); SCORES at 24 hours, individual [2, 11]: 2 and 5 and 10 and 4.5

With `C=CCOc1ccc(CC(=O)O)cc1Cl` [Alclofenac, 4-allyloxy-3-chlorophenylacetic acid, reference compound] as the compound, how does the Solubility [3] read?
Its Solubility is “insoluble in the physiological fluids; also recorded: insolubility”.

What about the antiinflammatory properties ([4]; in vivo) of the same compound?
Its antiinflammatory properties is “antiinflammatory properties”.

What about the analgesic activity ([4]; versus acetylsalicylic acid) of the same compound?
The analgesic activity was “marked analgesic activity, higher than acetylsalicylic acid”.

And the Ka ([5]; P.OS 90 mg/kg)?
The Ka was 0.0146 ± 0.0018 min⁻¹.

And the t1/2α ([5]; P.OS 90 mg/kg)?
The t1/2α was 0.85 ± 0.083333 h.

What about the Ka ([5]; RECTAL 100 mg/kg) of the same compound?
The Ka was 0.053 ± 0.10 min⁻¹.

What about the t1/2α ([5]; RECTAL 100 mg/kg) of the same compound?
Its t1/2α is 0.233 ± 0.05 h.

And the “absorption, in words” value ([5]; oral and rectal route, rabbits)?
Its value is “well absorbed through the oral and rectal route”.

What about the CL/F ([5]; 100 mg/kg, RECTAL 100 mg/kg) of the same compound?
Its CL/F is 0.54 ± 0.04 mL/min/kg.

What about the k el ([5]; 100 mg/kg, RECTAL 100 mg/kg) of the same compound?
The k el was 3.83e-05 s⁻¹.

What about the Cmax ([5]; 100 mg/kg, RECTAL 100 mg/kg) of the same compound?
The Cmax was 425 ± 11.9 µg/mL.

And the Vd/F ([5]; 100 mg/kg, RECTAL 100 mg/kg)?
The Vd/F was 0.274 ± 0.06 L/kg.

And the half-life ([5]; 100 mg/kg, RECTAL 100 mg/kg)?
The half-life was 5.12 ± 0.583 h.

And the Tmax ([5]; 100 mg/kg, RECTAL 100 mg/kg)?
The Tmax was 1.1 h.

What about the CL/F ([5]; po, 90 mg/kg, P.OS 90 mg/kg) of the same compound?
The CL/F was 0.64 ± 0.06 mL/min/kg.

And the k el ([5]; po, 90 mg/kg, P.OS 90 mg/kg)?
Its k el is 3e-05 s⁻¹.

What about the Cmax ([5]; po, 90 mg/kg, P.OS 90 mg/kg) of the same compound?
The Cmax was 358 ± 47.8 µg/mL.

And the Vd/F ([5]; po, 90 mg/kg, P.OS 90 mg/kg)?
Its Vd/F is 0.326 ± 0.045 L/kg.

And the half-life ([5]; po, 90 mg/kg, P.OS 90 mg/kg)?
Its half-life is 6.9 ± 0.667 h.

What about the Tmax ([5]; po, 90 mg/kg, P.OS 90 mg/kg) of the same compound?
Its Tmax is 2.88 h.

And the “% Availability (AUC o → 4h)” value ([6]; P.O. 90 mg/kg, 0-4 h, 90 mg/kg, 240 min)?
The value was 42.4%.

And the “% Availability (practical AUC)” value ([6]; P.O. 90 mg/kg, 90 mg/kg)?
The value was 84.0%.

And the “% Availability (theoretical AUC)” value ([6]; P.O. 90 mg/kg, 90 mg/kg)?
The value was 89.2%.

What about the “% Availability (AUC o → 2h)” value ([6]; Rectal 100 mg/kg, 0-2 h, 100 mg/kg, 120 min) of the same compound?
The value was 83.24%.

And the “% Availability (practical AUC)” value ([6]; Rectal 100 mg/kg, 100 mg/kg)?
The value was 105.7%.

And the “% Availability (theoretical AUC)” value ([6]; Rectal 100 mg/kg, 100 mg/kg)?
Its value is 87.2%.

Which Hygroscopicity ([1]; listed as Arginine salt) does the source give for `C=CCOc1ccc(CC(=O)O)cc1Cl` [Alclofenac-Arginine] here?
The Hygroscopicity was “non-hygroscopic”.

And the pH of solution ([7]; listed as Arginine salt)?
The pH of solution was 7.7.

What about the Solubility ([3]; listed as Arginine salt) of the same compound?
Its Solubility is “scarcely water soluble”.

And the “SCORES at 24 hours, Average” value [2, 11]?
Its value is 3.9.

What about the “SCORES at 24 hours, Average” value [2, 12] of the same compound?
The value was 1.6.

What about the “SCORES at 24 hours, individual” value [2, 11] of the same compound?
Its value is 6.5 and 2.5 and 3 and 3.5.

And the “SCORES at 24 hours, individual” value [2, 12]?
The value was 1.5 and 3.5 and 3 and 0.

With `C=CCOc1ccc(CC(=O)O)cc1Cl` [sodic salt of the acid] as the compound, how does the tolerability of injection [8] read?
Its tolerability of injection is “scarcely tolerated”.

Which “Stability of the solution” value [1, 13] does the source give for `C=CCOc1ccc(CC(=O)O)cc1Cl` [Alclofenac-Ethanolamine] here?
Its value is “stable”.

And the pH of solution [7, 13]?
Its pH of solution is 7.5.

And the tolerability on injection [9]?
Its tolerability on injection is “poor tolerability”.

What about the “SCORES at 24 hours, Average” value [2, 10] of the same compound?
Its value is 3.

What about the “SCORES at 24 hours, individual” value [2, 10] of the same compound?
The value was 3 and 3.5 and 2.5.
